Source: PubChem BioAssay (NCI)
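Each compound was tested at five concentrations against cells in 96-well plates for 48 hours. Definition used: TGI = concentration required for complete inhibition of growth.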

Assays:
Assay in all cases: inhibition of tumour cell growth, NCI panel, 48 h
NCI-H522 lung = tested on: NCI-H522 lung
MALME-3M melanoma = tested on: MALME-3M melanoma
SW-620 colon = tested on: SW-620 colon
RXF 393 renal = tested on: RXF 393 renal
TK-10 renal = tested on: TK-10 renal
NCI-H460 lung = tested on: NCI-H460 lung
SF-539 CNS = tested on: SF-539 CNS
SF-268 CNS = tested on: SF-268 CNS
HCC-2998 colon = tested on: HCC-2998 colon
U251 CNS = tested on: U251 CNS
SNB-75 CNS = tested on: SNB-75 CNS
COLO 205 colon = tested on: COLO 205 colon
SK-OV-3 ovarian = tested on: SK-OV-3 ovarian
OVCAR-8 ovarian = tested on: OVCAR-8 ovarian
SR leukemia = tested on: SR leukemia
OVCAR-4 ovarian = tested on: OVCAR-4 ovarian
HCT-15 colon = tested on: HCT-15 colon
KM12 colon = tested on: KM12 colon
HOP-18 NSCLC = tested on: HOP-18 NSCLC
LXFL 529 NSCLC = tested on: LXFL 529 NSCLC
A549 NSCLC = tested on: A549 NSCLC
MOLT-4 leukemia = tested on: MOLT-4 leukemia
SK-MEL-28 melanoma = tested on: SK-MEL-28 melanoma
SK-MEL-5 melanoma = tested on: SK-MEL-5 melanoma
NCI-H226 lung = tested on: NCI-H226 lung
CCRF-CEM leukemia = tested on: CCRF-CEM leukemia
IGROV1 ovarian = tested on: IGROV1 ovarian
DMS 273 small cell lung = tested on: DMS 273 small cell lung
SN12C renal = tested on: SN12C renal
EKVX NSCLC = tested on: EKVX NSCLC
RPMI-8226 leukemia = tested on: RPMI-8226 leukemia
KM20L2 colon = tested on: KM20L2 colon
M14 melanoma = tested on: M14 melanoma
HL-60(TB) leukemia = tested on: HL-60(TB) leukemia
A498 renal = tested on: A498 renal
HCT-116 colon = tested on: HCT-116 colon
SNB-78 CNS = tested on: SNB-78 CNS
DLD-1 colon = tested on: DLD-1 colon
UACC-62 melanoma = tested on: UACC-62 melanoma
CAKI-1 renal = tested on: CAKI-1 renal
RXF-631 renal = tested on: RXF-631 renal
HOP-62 NSCLC = tested on: HOP-62 NSCLC
UO-31 renal = tested on: UO-31 renal
ACHN renal = tested on: ACHN renal
M19-MEL melanoma = tested on: M19-MEL melanoma
SF-295 CNS = tested on: SF-295 CNS
UACC-257 melanoma = tested on: UACC-257 melanoma
OVCAR-3 ovarian = tested on: OVCAR-3 ovarian
HOP-92 NSCLC = tested on: HOP-92 NSCLC
HT29 colon = tested on: HT29 colon
786-0 renal = tested on: 786-0 renal
SNB-19 CNS = tested on: SNB-19 CNS
OVCAR-5 ovarian = tested on: OVCAR-5 ovarian
LOX IMVI melanoma = tested on: LOX IMVI melanoma
K-562 leukemia = tested on: K-562 leukemia
DMS 114 small cell lung = tested on: DMS 114 small cell lung
SK-MEL-2 melanoma = tested on: SK-MEL-2 melanoma
NCI-H23 lung = tested on: NCI-H23 lung

In the case of `Cc1cc(C(C)C)cc(O)c(=O)c1`, the TGI (NCI-H522 lung) is reported as over 100 µM, the TGI (MALME-3M melanoma) is reported as over 100 µM and the TGI (SW-620 colon) is reported as over 100 µM. The TGI (RXF 393 renal) was over 100 µM, the TGI (TK-10 renal) was over 100 µM and the TGI (NCI-H460 lung) was over 100 µM. For the same molecule, the TGI (SF-539 CNS) was over 100 µM, the TGI (SF-268 CNS) was over 100 µM and the TGI (HCC-2998 colon) was over 100 µM. The TGI (U251 CNS) was over 100 µM, the TGI (SNB-75 CNS) was over 100 µM and the TGI (COLO 205 colon) was over 100 µM. For the same molecule, the TGI (SK-OV-3 ovarian) was over 100 µM, the TGI (OVCAR-8 ovarian) was over 100 µM and the TGI (SR leukemia) was over 100 µM. The TGI (OVCAR-4 ovarian) was over 100 µM, the TGI (HCT-15 colon) was over 100 µM and the TGI (KM12 colon) was over 100 µM. The TGI (HOP-18 NSCLC) was over 100 µM, the TGI (LXFL 529 NSCLC) was over 100 µM and the TGI (A549 NSCLC) was over 100 µM. For the same molecule, the TGI (MOLT-4 leukemia) was over 100 µM, the TGI (SK-MEL-28 melanoma) was over 100 µM and the TGI (SK-MEL-5 melanoma) was over 100 µM. For the same molecule, the TGI (NCI-H226 lung) was over 100 µM, the TGI (CCRF-CEM leukemia) was over 100 µM and the TGI (IGROV1 ovarian) was over 100 µM. The TGI (DMS 273 small cell lung) was over 100 µM, the TGI (SN12C renal) was over 100 µM and the TGI (EKVX NSCLC) was over 100 µM. The TGI (RPMI-8226 leukemia) was over 100 µM, the TGI (KM20L2 colon) was over 100 µM and the TGI (M14 melanoma) was over 100 µM. For the same molecule, the TGI (HL-60(TB) leukemia) was over 100 µM, the TGI (A498 renal) was over 100 µM and the TGI (HCT-116 colon) was over 100 µM. It also gave a TGI (SNB-78 CNS) of over 100 µM, a TGI (DLD-1 colon) of over 100 µM and a TGI (UACC-62 melanoma) of over 100 µM. It also gave a TGI (CAKI-1 renal) of over 100 µM, a TGI (RXF-631 renal) of over 100 µM and a TGI (HOP-62 NSCLC) of over 100 µM. It also gave a TGI (UO-31 renal) of over 100 µM, a TGI (ACHN renal) of over 100 µM and a TGI (M19-MEL melanoma) of over 100 µM. For the same molecule, the TGI (SF-295 CNS) was over 100 µM, the TGI (UACC-257 melanoma) was over 100 µM and the TGI (OVCAR-3 ovarian) was over 100 µM. The TGI (HOP-92 NSCLC) was over 100 µM, the TGI (HT29 colon) was over 100 µM and the TGI (786-0 renal) was over 100 µM. It also gave a TGI (SNB-19 CNS) of over 100 µM, a TGI (OVCAR-5 ovarian) of over 100 µM and a TGI (LOX IMVI melanoma) of over 100 µM.

`COc1ccc(C(O)c2cc(OC)c(OC)c(OC)c2)cc1` (stereo not drawn) showed a TGI (NCI-H522 lung) of 35.5 µM, a TGI (MALME-3M melanoma) of over 100 µM and a TGI (SW-620 colon) of over 100 µM. It also gave a TGI (RXF 393 renal) of 30.6 µM, a TGI (TK-10 renal) of over 100 µM and a TGI (NCI-H460 lung) of over 100 µM. For the same molecule, the TGI (SF-539 CNS) was 63.7 µM, the TGI (SF-268 CNS) was over 100 µM and the TGI (U251 CNS) was over 100 µM. It also gave a TGI (COLO 205 colon) of 26.4 µM, a TGI (OVCAR-8 ovarian) of over 100 µM and a TGI (OVCAR-4 ovarian) of over 100 µM. The TGI (HCT-15 colon) was over 100 µM, the TGI (KM12 colon) was over 100 µM and the TGI (HOP-18 NSCLC) was over 100 µM. For the same molecule, the TGI (LXFL 529 NSCLC) was over 100 µM, the TGI (A549 NSCLC) was over 100 µM and the TGI (MOLT-4 leukemia) was over 100 µM. The TGI (SK-MEL-28 melanoma) was over 100 µM, the TGI (SK-MEL-5 melanoma) was 42.2 µM and the TGI (NCI-H226 lung) was over 100 µM. It also gave a TGI (CCRF-CEM leukemia) of over 100 µM, a TGI (IGROV1 ovarian) of over 100 µM and a TGI (DMS 273 small cell lung) of over 100 µM. The TGI (K-562 leukemia) was over 100 µM, the TGI (SN12C renal) was over 100 µM and the TGI (EKVX NSCLC) was over 100 µM. It also gave a TGI (RPMI-8226 leukemia) of over 100 µM, a TGI (DMS 114 small cell lung) of 37.5 µM and a TGI (M14 melanoma) of 83.3 µM. The TGI (HL-60(TB) leukemia) was 39.5 µM, the TGI (A498 renal) was over 100 µM and the TGI (HCT-116 colon) was over 100 µM. For the same molecule, the TGI (SNB-78 CNS) was over 100 µM, the TGI (DLD-1 colon) was over 100 µM and the TGI (UACC-62 melanoma) was over 100 µM. For the same molecule, the TGI (CAKI-1 renal) was over 100 µM, the TGI (RXF-631 renal) was over 100 µM and the TGI (HOP-62 NSCLC) was over 100 µM. The TGI (UO-31 renal) was over 100 µM, the TGI (ACHN renal) was over 100 µM and the TGI (M19-MEL melanoma) was over 100 µM. It also gave a TGI (SF-295 CNS) of 29.2 µM, a TGI (UACC-257 melanoma) of over 100 µM and a TGI (OVCAR-3 ovarian) of 47 µM. The TGI (HOP-92 NSCLC) was over 100 µM, the TGI (HT29 colon) was over 100 µM and the TGI (786-0 renal) was over 100 µM. It also gave a TGI (SNB-19 CNS) of over 100 µM, a TGI (OVCAR-5 ovarian) of over 100 µM and a TGI (LOX IMVI melanoma) of over 100 µM.

With `CC1(C)C2CCC13C(=O)C1OC3(C2)C2C(=O)N(c3ccccc3)C(=O)C12` (stereo not drawn) the TGI (NCI-H522 lung) was 49.1 µM, the TGI (MALME-3M melanoma) was over 100 µM and the TGI (SW-620 colon) was over 100 µM. For the same molecule, the TGI (RXF 393 renal) was over 100 µM, the TGI (TK-10 renal) was over 100 µM and the TGI (NCI-H460 lung) was over 100 µM. For the same molecule, the TGI (SF-539 CNS) was over 100 µM, the TGI (SF-268 CNS) was over 100 µM and the TGI (HCC-2998 colon) was over 100 µM. It also gave a TGI (U251 CNS) of over 100 µM, a TGI (SNB-75 CNS) of over 100 µM and a TGI (COLO 205 colon) of over 100 µM. For the same molecule, the TGI (SK-OV-3 ovarian) was over 100 µM, the TGI (OVCAR-8 ovarian) was over 100 µM and the TGI (SK-MEL-2 melanoma) was over 100 µM. It also gave a TGI (OVCAR-4 ovarian) of over 100 µM, a TGI (HCT-15 colon) of over 100 µM and a TGI (KM12 colon) of over 100 µM. It also gave a TGI (HOP-18 NSCLC) of over 100 µM, a TGI (LXFL 529 NSCLC) of over 100 µM and a TGI (A549 NSCLC) of over 100 µM. For the same molecule, the TGI (MOLT-4 leukemia) was over 100 µM, the TGI (SK-MEL-5 melanoma) was over 100 µM and the TGI (NCI-H226 lung) was over 100 µM. For the same molecule, the TGI (CCRF-CEM leukemia) was over 100 µM, the TGI (IGROV1 ovarian) was over 100 µM and the TGI (DMS 273 small cell lung) was over 100 µM. It also gave a TGI (K-562 leukemia) of over 100 µM, a TGI (SN12C renal) of over 100 µM and a TGI (EKVX NSCLC) of over 100 µM. The TGI (RPMI-8226 leukemia) was over 100 µM, the TGI (KM20L2 colon) was over 100 µM and the TGI (DMS 114 small cell lung) was over 100 µM. It also gave a TGI (M14 melanoma) of over 100 µM, a TGI (HL-60(TB) leukemia) of over 100 µM and a TGI (A498 renal) of over 100 µM. The TGI (HCT-116 colon) was over 100 µM, the TGI (SNB-78 CNS) was over 100 µM and the TGI (UACC-62 melanoma) was over 100 µM. For the same molecule, the TGI (CAKI-1 renal) was over 100 µM, the TGI (RXF-631 renal) was over 100 µM and the TGI (HOP-62 NSCLC) was over 100 µM. For the same molecule, the TGI (UO-31 renal) was over 100 µM, the TGI (ACHN renal) was over 100 µM and the TGI (SF-295 CNS) was over 100 µM. It also gave a TGI (UACC-257 melanoma) of over 100 µM, a TGI (OVCAR-3 ovarian) of over 100 µM and a TGI (HT29 colon) of over 100 µM. The TGI (786-0 renal) was over 100 µM, the TGI (SNB-19 CNS) was over 100 µM and the TGI (OVCAR-5 ovarian) was over 100 µM. For the same molecule, the TGI (LOX IMVI melanoma) was over 100 µM and the TGI (NCI-H23 lung) was over 100 µM.
